From ChEMBL document CHEMBL5291721, “A preclinical secondary pharmacology resource illuminates target-adverse drug reaction associations of marketed drugs” (Nat Commun, 2023) come the findings set out here.

One test deals with D(1A) dopamine receptor (Homo sapiens, UniProt P21728). Format: functional, cell-based.
In test [1] the target is T1, Alpha-2A adrenergic receptor (Homo sapiens, UniProt P08913).
T1 sequence (P08913 whole entry): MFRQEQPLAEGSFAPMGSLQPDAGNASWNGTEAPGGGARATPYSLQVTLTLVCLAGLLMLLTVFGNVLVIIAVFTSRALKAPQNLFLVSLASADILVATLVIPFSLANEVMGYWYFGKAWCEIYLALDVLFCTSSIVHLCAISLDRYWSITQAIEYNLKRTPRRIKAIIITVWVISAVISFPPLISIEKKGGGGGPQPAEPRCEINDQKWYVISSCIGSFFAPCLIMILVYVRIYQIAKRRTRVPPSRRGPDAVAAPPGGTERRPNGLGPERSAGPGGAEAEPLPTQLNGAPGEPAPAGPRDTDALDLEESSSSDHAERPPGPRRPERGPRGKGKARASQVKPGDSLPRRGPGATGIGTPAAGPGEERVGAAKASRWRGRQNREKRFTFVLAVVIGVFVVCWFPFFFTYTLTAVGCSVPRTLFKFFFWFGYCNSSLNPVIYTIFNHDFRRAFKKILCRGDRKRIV
Format: functional, cell-based.

The next test concerns the target T2, Progesterone receptor (Homo sapiens, UniProt P06401).
T2 sequence (P06401 whole entry): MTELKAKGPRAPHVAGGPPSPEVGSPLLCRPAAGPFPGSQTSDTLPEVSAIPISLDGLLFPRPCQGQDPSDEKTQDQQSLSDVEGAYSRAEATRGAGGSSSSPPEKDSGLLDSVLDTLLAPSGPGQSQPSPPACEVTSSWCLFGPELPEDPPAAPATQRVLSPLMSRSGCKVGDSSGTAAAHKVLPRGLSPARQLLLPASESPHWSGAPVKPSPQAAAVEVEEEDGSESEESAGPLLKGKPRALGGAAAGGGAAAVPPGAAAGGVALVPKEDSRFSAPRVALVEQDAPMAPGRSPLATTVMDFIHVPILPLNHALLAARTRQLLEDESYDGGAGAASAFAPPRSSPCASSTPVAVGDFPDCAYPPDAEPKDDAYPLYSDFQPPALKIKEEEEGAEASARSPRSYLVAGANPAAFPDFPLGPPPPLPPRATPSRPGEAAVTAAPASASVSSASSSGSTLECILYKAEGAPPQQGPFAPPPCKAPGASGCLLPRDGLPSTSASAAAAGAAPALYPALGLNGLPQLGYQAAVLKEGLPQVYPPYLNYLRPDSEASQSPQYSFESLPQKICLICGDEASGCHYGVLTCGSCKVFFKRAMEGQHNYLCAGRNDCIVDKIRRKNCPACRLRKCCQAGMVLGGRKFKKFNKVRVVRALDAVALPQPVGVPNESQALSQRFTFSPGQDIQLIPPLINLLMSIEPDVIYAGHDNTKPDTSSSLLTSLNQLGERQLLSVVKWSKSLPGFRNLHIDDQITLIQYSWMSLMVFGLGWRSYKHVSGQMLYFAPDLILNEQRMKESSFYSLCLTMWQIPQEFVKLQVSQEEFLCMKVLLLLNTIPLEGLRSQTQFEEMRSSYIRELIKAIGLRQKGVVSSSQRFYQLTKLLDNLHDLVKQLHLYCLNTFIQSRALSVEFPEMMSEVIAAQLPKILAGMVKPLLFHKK
It counts as functional.

In test [2] the target is Muscarinic acetylcholine receptor M3 (Homo sapiens, UniProt P20309).
Test [3] addresses Gamma-aminobutyric acid receptor subunit alpha-1 (Rattus norvegicus, UniProt P62813). It counts as functional.
Test [4] addresses T3, Cholecystokinin receptor type A (Homo sapiens, UniProt P32238).
T3 sequence (P32238 whole entry): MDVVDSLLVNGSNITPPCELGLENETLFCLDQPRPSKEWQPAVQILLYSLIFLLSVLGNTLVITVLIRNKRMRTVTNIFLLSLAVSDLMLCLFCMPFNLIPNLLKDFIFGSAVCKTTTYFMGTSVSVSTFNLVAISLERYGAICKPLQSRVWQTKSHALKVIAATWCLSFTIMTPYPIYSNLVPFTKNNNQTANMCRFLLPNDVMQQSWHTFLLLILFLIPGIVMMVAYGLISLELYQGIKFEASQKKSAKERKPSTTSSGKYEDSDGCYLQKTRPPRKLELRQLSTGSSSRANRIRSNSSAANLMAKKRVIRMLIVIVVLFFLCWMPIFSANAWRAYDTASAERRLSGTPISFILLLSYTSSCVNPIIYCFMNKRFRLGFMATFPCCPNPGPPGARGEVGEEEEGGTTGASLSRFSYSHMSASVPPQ

In test [5] the target is Voltage-dependent L-type calcium channel subunit alpha-1C (Rattus norvegicus, UniProt P22002). Format: functional.
The target of the next test is Histamine H2 receptor (Homo sapiens, UniProt P25021). Format: functional, cell-based.
Test [6] concerns the target T4, Amine oxidase [flavin-containing] A (Homo sapiens, UniProt P21397).
T4 sequence (P21397 whole entry): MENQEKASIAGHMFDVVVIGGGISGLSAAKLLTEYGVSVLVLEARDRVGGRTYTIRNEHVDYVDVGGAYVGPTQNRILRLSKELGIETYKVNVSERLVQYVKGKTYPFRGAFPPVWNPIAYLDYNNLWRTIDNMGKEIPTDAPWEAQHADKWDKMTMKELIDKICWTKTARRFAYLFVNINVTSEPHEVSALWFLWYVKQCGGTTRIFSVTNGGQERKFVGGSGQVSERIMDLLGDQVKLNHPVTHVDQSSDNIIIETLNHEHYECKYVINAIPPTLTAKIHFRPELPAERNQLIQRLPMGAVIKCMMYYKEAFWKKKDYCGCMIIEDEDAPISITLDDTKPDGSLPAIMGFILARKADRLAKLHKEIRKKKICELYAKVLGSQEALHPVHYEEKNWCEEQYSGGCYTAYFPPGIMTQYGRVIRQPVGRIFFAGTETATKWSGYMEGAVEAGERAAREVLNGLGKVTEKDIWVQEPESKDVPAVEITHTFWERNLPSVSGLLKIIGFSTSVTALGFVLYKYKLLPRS
Format: functional.

Test [7] deals with Neuronal acetylcholine receptor subunit alpha-4 (Homo sapiens, UniProt P43681).

Structures are written as SMILES.
Note: assay procedure not described here.

Voltage-dependent L-type calcium channel subunit alpha-1C, sequence (P22002 whole entry): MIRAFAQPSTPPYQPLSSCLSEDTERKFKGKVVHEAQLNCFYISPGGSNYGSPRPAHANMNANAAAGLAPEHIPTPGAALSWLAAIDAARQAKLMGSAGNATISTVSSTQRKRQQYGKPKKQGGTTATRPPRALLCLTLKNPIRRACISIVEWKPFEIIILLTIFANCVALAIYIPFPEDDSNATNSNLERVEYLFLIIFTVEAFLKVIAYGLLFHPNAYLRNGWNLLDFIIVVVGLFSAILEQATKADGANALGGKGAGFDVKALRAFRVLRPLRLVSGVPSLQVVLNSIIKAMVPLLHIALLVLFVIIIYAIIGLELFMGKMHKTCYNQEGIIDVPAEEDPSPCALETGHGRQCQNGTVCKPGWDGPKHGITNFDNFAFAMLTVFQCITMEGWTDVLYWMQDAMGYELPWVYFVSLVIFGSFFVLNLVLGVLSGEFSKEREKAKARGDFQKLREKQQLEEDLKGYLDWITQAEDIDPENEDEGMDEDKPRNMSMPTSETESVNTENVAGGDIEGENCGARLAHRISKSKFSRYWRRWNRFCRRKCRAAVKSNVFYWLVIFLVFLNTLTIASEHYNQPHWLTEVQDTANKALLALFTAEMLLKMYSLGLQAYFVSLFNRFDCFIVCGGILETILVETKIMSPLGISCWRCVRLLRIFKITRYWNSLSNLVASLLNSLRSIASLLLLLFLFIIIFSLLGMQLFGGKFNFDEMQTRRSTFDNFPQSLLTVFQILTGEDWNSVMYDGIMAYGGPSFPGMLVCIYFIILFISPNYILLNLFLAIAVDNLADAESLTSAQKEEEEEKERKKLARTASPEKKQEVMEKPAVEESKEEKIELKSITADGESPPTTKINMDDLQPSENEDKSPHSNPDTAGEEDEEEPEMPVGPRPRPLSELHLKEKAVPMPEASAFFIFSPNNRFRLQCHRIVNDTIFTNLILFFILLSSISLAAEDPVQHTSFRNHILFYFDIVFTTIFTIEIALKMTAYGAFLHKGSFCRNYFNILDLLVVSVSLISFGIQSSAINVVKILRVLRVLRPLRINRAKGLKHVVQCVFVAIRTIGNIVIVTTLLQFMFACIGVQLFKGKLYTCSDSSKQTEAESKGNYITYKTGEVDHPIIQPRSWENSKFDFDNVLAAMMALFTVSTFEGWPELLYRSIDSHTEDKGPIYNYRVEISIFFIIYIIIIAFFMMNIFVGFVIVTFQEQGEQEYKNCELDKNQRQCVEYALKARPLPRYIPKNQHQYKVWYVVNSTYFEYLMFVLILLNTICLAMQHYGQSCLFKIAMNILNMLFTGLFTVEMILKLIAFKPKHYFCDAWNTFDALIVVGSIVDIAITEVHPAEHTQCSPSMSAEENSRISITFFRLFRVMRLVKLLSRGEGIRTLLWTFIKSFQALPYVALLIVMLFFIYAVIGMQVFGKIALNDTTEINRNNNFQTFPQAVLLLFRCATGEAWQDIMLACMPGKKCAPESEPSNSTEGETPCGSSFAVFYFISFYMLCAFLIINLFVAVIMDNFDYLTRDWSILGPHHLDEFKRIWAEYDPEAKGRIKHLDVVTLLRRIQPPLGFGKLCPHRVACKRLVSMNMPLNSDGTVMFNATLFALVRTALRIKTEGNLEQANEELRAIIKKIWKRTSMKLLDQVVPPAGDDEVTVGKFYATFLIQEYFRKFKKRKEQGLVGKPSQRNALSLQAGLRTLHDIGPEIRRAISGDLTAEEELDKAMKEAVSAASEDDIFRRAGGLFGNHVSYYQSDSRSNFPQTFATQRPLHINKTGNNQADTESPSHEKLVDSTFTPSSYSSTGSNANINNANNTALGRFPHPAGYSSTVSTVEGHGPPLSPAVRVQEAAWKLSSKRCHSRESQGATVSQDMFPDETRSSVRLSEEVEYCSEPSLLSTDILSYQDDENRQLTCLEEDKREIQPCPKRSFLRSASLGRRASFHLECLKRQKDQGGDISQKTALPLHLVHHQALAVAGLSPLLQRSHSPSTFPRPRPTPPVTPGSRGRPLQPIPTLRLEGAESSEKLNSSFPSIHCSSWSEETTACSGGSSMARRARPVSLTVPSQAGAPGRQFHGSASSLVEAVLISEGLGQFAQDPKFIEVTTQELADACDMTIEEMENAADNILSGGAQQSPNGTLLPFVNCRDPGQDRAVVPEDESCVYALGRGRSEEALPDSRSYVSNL
Gamma-aminobutyric acid receptor subunit alpha-1, sequence (P62813 whole entry): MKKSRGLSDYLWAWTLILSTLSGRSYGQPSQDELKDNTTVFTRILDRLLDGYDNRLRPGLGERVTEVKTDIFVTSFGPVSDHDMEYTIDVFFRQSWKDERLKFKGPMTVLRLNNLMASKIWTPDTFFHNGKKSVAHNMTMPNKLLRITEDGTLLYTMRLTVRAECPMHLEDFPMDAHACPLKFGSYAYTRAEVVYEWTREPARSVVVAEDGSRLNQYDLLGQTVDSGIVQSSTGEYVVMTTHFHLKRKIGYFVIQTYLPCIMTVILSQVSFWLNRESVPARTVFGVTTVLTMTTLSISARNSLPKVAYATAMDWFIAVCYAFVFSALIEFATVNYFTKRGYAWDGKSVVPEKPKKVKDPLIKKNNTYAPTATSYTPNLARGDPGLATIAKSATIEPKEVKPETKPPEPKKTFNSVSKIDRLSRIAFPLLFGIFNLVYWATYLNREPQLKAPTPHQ
D(1A) dopamine receptor, sequence (P21728 whole entry): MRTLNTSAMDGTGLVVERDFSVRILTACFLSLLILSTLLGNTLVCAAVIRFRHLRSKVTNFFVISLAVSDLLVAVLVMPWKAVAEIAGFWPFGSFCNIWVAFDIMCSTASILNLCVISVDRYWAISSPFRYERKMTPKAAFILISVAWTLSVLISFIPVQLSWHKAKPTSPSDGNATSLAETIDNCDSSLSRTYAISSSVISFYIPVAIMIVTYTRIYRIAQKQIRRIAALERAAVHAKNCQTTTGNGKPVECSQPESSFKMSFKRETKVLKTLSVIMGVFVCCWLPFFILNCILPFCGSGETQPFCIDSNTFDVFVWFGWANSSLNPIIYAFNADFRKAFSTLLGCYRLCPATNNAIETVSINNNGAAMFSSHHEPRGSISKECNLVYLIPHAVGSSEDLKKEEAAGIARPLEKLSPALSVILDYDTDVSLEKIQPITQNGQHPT
Muscarinic acetylcholine receptor M3, sequence (P20309 whole entry): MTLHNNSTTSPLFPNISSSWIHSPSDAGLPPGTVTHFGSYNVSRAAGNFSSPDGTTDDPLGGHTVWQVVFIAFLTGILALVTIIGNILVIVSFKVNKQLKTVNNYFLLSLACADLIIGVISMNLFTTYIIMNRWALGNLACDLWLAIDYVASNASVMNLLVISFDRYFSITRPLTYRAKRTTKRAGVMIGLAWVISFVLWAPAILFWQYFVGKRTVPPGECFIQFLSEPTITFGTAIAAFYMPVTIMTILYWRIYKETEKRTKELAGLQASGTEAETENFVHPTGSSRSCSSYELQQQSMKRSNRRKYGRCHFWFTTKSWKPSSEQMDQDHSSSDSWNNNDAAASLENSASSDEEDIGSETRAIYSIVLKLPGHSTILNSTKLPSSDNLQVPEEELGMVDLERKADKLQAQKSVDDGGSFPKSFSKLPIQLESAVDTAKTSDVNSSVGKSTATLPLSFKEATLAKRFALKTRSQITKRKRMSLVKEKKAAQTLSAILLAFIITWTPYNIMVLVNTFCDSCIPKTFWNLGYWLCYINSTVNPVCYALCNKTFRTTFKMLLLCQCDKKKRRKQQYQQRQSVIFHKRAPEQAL
Histamine H2 receptor, sequence (P25021 whole entry): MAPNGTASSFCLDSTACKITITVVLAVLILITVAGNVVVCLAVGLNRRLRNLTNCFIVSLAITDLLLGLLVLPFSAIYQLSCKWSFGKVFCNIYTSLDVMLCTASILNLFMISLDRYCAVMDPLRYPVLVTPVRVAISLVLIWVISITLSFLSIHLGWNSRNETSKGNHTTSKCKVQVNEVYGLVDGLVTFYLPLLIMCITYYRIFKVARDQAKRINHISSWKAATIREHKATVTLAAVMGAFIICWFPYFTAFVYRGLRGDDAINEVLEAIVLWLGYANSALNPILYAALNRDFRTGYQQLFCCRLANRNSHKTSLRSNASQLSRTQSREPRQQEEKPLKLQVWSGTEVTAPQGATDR
Neuronal acetylcholine receptor subunit alpha-4, sequence (P43681 whole entry): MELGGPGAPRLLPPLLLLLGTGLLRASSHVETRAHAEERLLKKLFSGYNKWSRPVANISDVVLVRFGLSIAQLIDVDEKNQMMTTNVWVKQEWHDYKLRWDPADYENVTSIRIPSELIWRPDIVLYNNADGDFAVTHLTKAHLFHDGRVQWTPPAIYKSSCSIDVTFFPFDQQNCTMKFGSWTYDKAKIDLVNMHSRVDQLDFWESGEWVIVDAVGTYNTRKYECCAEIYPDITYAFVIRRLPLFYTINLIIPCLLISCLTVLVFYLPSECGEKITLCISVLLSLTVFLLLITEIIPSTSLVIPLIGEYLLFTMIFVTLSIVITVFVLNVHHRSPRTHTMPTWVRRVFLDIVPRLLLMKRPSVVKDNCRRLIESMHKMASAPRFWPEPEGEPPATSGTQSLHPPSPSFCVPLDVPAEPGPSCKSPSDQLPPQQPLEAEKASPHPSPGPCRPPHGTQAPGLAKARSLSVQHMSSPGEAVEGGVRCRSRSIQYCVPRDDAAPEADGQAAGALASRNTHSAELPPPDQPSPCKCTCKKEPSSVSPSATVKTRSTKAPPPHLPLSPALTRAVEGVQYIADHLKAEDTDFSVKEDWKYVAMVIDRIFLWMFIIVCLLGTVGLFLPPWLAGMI

The AC50 is the midpoint of the concentration-response curve, whichever way the signal moves. Regarding `C#C[C@]1(O)CC[C@H]2[C@@H]3CCC4=CC(=O)CCC4=C3C=C[C@@]21CC` [GESTRINONE], the AC50 on D(1A) dopamine receptor was above 30 µM; in [1], 11 µM; at Progesterone receptor, 0.1 µM; in test [2], above 30 µM; in test [3], 8.8 µM; in test [4] it was above 30 µM. The AC50 (in [5]; at Histamine H2 receptor; in test [6]; in test [7]) was above 30 µM throughout.

`CCCCCCOC(=O)CCC(=O)CN` [HEXAMINOLEVULINATE]: the AC50 (at D(1A) dopamine receptor; in test [1]; on Progesterone receptor; in test [2]; in test [3]; in test [4]) was above 30 µM throughout. In addition, the AC50 (in test [5]; at Histamine H2 receptor; in [6]; in test [7]) was above 30 µM each time.

As for `CC(C)OC(=O)C(C(=O)OC(C)C)=C1SC=CS1` [MALOTILATE], the AC50 at D(1A) dopamine receptor is above 30 µM; in [1], above 30 µM; at Progesterone receptor, above 30 µM; in test [2] it was above 30 µM; in [3], 15 µM; in test [4] it was above 30 µM. Also, the AC50 (in [5]; on Histamine H2 receptor; in test [6]; in [7]) was above 30 µM throughout.

Consider `CC(=O)Nc1c(I)c(C(=O)N[C@H]2C(O)O[C@H](CO)[C@@H](O)[C@@H]2O)c(I)c(N(C)C(C)=O)c1I` (stereo not given in full) [METRIZAMIDE], for which the AC50 was above 10 µM on D(1A) dopamine receptor; above 10 µM in [1]; above 10 µM at Progesterone receptor; above 30 µM in test [2]; above 10 µM in test [3]; above 10 µM in test [4]. In addition, the concentration at half-maximal activity (AC50) (in test [5]; on Histamine H2 receptor; in [6]; in test [7]) was above 10 µM throughout.

Take `CN(c1nccc(=O)[nH]1)C1CCN(c2nc3ccccc3n2Cc2ccc(F)cc2)CC1` [MIZOLASTINE]: the concentration at half-maximal activity (AC50) is above 30 µM at D(1A) dopamine receptor; 23 µM in [1]; above 30 µM on Progesterone receptor; above 30 µM in [2]; above 30 µM in test [3]; above 30 µM in test [4]. Besides, the AC50 (in test [5]; at Histamine H2 receptor; in test [6]; in test [7]) was above 30 µM each time.

Consider `CC(=O)O[C@H]1C[C@@H]2CC[C@@H]3[C@H](CC[C@@]4(C)[C@H]3C[C@H]([N+]3(C)CCCCC3)[C@@H]4OC(C)=O)[C@@]2(C)C[C@@H]1[N+]1(C)CCCCC1` [PANCURONIUM], for which the AC50 on D(1A) dopamine receptor is above 10 µM; in test [1], above 10 µM; on Progesterone receptor it was above 10 µM; in test [2] it was above 30 µM; in test [3] it was above 10 µM; in [4] it was above 10 µM. Moreover, the AC50 (in test [5]; at Histamine H2 receptor; in [6]; in test [7]) was above 10 µM each time.

For `CC1(C)C(C=C(Cl)Cl)C1C(=O)OCc1cccc(Oc2ccccc2)c1` (stereo not given) [PERMETHRIN], the AC50 at D(1A) dopamine receptor is above 10 µM; in test [1] it was 9.7 µM; on Progesterone receptor it was above 30 µM; in [2], above 30 µM; in [3] it was above 10 µM; in test [4] it was above 10 µM. Also, the AC50 (in test [5]; at Histamine H2 receptor; in test [6]; in [7]) was above 10 µM in each case.

`CC[N+]1(C)CCCC(OC(=O)C(O)(c2ccccc2)c2ccccc2)C1` (stereo not given) [PIPENZOLATE]: the AC50 at D(1A) dopamine receptor is above 30 µM; in test [1] it was above 30 µM; at Progesterone receptor it was above 30 µM; in test [2], 0.019 µM; in test [3] it was above 30 µM; in [4], above 30 µM. For the same compound, the AC50 (in [5]; at Histamine H2 receptor; in test [6]; in test [7]) was above 30 µM in each case.

`NC(=O)CCC/N=C(\c1ccc(Cl)cc1)c1cc(F)ccc1O` [PROGABIDE]: the AC50 is above 10 µM at D(1A) dopamine receptor; above 10 µM in test [1]; above 10 µM on Progesterone receptor; above 30 µM in [2]; above 10 µM in test [3]; above 10 µM in test [4]. Moreover, the AC50 (in [5]; at Histamine H2 receptor; in test [6]; in test [7]) was above 10 µM each time.

Take `CCN(CC)CC(=O)Oc1ccc(NC(C)=O)cc1` [PROPACETAMOL]: the AC50 (on D(1A) dopamine receptor; in test [1]; at Progesterone receptor; in test [2]; in test [3]; in [4]) was above 30 µM each time. The AC50 (in test [5]; on Histamine H2 receptor; in [6]; in test [7]) was above 30 µM throughout.

Consider `CCCOC(C(=O)OC1CCN(C)CC1)(c1ccccc1)c1ccccc1` [PROPIVERINE], for which the half-maximal activity concentration (AC50) is above 30 µM at D(1A) dopamine receptor; above 30 µM in test [1]; above 30 µM on Progesterone receptor; 0.83 µM in [2]; above 30 µM in test [3]; above 30 µM in test [4]. The AC50 (in [5]; at Histamine H2 receptor; in test [6]; in test [7]) was above 30 µM in each case.

Take `CC(NCCc1ccc(O)cc1)C(O)c1ccc(O)cc1` (stereo not given) [RITODRINE]: the AC50 was above 10 µM on D(1A) dopamine receptor; above 30 µM in test [1]; above 30 µM at Progesterone receptor; above 30 µM in test [2]; above 30 µM in test [3]; above 30 µM in [4]. Besides, the AC50 in test [5] was above 10 µM; at Histamine H2 receptor it was above 30 µM; in test [6], above 30 µM; in test [7] it was above 30 µM.
